According to PMC4438431 (2015):

Columns and labels:
Assay in all cases: CD titration, Hyperquad 2003 fit
[1] = system: c-myc1245 (DNA, G4) TGAGGGTGGGTTTTTAGGGTGGGGAA; settings: K+ (17 mM K2HPO4/KH2PO4); pH 7.40, 5% DMSO, 20 °C; conflict: Figure S38 legend prints (5.1 ± 0.2) × 10^4
[2] = system: c-kitG20T (DNA, G4) AGGGAGGGCGCTGGGAGGATGG; settings: K+ (17 mM K2HPO4/KH2PO4); pH 7.40, 5% DMSO, 20 °C; site 1 of 2, stepwise 1:1; second G4 1.1 × 10^5 M^-1
[3] = system: c-mycTGA-de (DNA, G4) GGGTGGGGAGGGTGGGGAA; settings: K+ (17 mM K2HPO4/KH2PO4); pH 7.40, 5% DMSO, 20 °C; site 1 of 2, stepwise 1:1; second G4 2.8 × 10^2 M^-1

Ka [1]: (1.3 ± 0.05) × 10^6 M^-1 | Ka1 [2]: (9.4 ± 0.4) × 10^4 M^-1 | Ka [3]: (5.1 ± 0.2) × 10^4 M^-1
Structure (SMILES): Cn1c2cccc(n2)n(C)c2cccc(n2)n(C)c2cccc(n2)n(C)c2cccc(n2)n(C)c2cccc(n2)n(C)c2cccc1n2
